Laboratory results: patent publication US10138233B2, “Imidazole compounds as modulators of FSHR and uses thereof” (Merck Patent GmbH, priority 2013, dated 2018)

What was measured:
[1] = molecular target: T1, follicle-stimulating hormone (FSH) receptor (Rattus norvegicus, UniProt P20395); test: Rat Granulosa EC50 FSH (Assay B); format: cell-based; conditions: rat granulosa cells, per Yanofsky et al. 2006
T1 construct: Rat Granulosa EC50 FSH (Assay B); endogenous in cells; host or cells: rat granulosa cells
T1 sequence (P20395 18-692): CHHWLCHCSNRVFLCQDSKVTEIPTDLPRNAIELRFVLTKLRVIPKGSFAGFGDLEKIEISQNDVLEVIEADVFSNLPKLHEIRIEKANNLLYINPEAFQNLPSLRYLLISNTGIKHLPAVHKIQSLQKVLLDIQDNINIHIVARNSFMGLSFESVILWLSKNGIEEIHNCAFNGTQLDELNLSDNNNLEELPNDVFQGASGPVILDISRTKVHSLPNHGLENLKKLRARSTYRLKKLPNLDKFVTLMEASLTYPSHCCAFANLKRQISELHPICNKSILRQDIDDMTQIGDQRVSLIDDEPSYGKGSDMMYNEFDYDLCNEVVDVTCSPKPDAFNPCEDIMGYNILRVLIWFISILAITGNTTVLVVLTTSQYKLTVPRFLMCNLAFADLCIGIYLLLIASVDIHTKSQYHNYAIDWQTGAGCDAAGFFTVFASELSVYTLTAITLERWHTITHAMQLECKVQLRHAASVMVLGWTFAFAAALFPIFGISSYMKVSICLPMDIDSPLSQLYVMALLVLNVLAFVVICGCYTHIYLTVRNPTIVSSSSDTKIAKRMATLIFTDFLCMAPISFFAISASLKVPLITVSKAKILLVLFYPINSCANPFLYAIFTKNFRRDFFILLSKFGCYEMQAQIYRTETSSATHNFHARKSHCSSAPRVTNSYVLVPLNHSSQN

FSHR = molecular target: T2, FSHR (Homo sapiens, UniProt P23945); test: EC50 of cyclic AMP production in CHO FSHR cells + EC20 FSH (Assay A); format: cell-based; conditions: CHO-FSHR-LUC cells, in presence of EC20 FSH, cAMP HTRF, 1 h 37° C.
T2 construct: expressed in transfected cells; host or cells: CHO cells, clone Cho-FSHR-LUC-1-1-43
T2 sequence (P23945 18-695): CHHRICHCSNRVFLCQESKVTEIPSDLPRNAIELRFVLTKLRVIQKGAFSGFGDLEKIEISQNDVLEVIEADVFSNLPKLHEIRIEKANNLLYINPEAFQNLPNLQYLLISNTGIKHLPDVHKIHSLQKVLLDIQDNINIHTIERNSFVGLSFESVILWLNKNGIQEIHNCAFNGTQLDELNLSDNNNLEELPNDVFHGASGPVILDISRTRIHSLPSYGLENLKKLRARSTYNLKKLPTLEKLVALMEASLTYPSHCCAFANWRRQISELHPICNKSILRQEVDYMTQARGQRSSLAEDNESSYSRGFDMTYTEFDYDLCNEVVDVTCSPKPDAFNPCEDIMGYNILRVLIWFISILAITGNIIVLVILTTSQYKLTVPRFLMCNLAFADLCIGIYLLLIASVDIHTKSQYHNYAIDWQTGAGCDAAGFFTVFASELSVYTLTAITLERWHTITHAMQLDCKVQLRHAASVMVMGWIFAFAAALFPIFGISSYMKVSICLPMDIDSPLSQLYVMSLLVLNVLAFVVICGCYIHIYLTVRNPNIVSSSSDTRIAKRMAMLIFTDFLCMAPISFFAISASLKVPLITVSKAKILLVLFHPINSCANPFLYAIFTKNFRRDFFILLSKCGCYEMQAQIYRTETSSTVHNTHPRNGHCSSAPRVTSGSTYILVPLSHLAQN

| Compound | EC50 [1] [µM] | EC50 (FSHR) [µM] |
| --- | --- | --- |
| [2H]C([2H])([2H])N(CCN(C(=O)c1nc(-c2cccs2)n2c1CCc1cc(OC)c(CC(C)C)cc1-2)C([2H])([2H])[2H])C(C)=O [Compound 31, 8-Isobutyl-7-methoxy-1-thiophen-2-yl-4,5-dihydro-imidazo[1,5-a]quinoline-3-carboxylic acid [2-(acetyl-methyl-d3-amino)-ethyl]-methyl-d3-amide] | > 5 | 0.1 to 1 |
| COc1cc2c(cc1OC(C)C)-n1c(-c3cccn3C)nc(C(=O)N3CCOCC3(C)C)c1CC2 [Compound 38] | > 5 | 0.1 to 1 |
| COc1cc2c(cc1OC(C)C)-n1c(-c3cc(C)cs3)nc(C(=O)N3CCOCC3(C)C)c1CC2 [Compound 70] | 1 to 5 | < 0.1 |
| COc1cc2c(cc1CC(C)C)-n1c(-c3ccc(C)s3)nc(C(=O)N(C)C(C)(C)C)c1CC2 [Compound 96, 8-Isobutyl-7-methoxy-1-(5-methyl-thiophen-2-yl)-4,5-dihydro-imidazo[1,5-a]quinoline-3-carboxylic acid tert-butyl-methyl-amide] | 1 to 5 | 0.1 to 1 |

More lines, now with the values ahead:

| EC50 [1] [µM] | EC50 (FSHR) [µM] | Compound |
| --- | --- | --- |
| 0.1 to 1 | < 0.1 | COc1cc2c(cc1OC(C)C)-n1c(-c3cc(Cl)cc(Cl)c3)nc(C(=O)N3CCOCC3(C)C)c1CC2 [Compound 110] |
| 1 to 5 | < 0.1 | [2H]C([2H])([2H])Oc1cc2c(cc1CC(C)C)-n1c(-c3ccsc3)nc(C(=O)N3CCOCC3(C)C)c1CC2 [Compound 41, (3,3-Dimethyl-morpholin-4-yl)-(8-isobutyl-7-methoxy-d3-1-thiophen-3-yl-4,5-dihydro-imidazo[1,5-a]quinolin-3-yl)-methanone] |
